Assay results taken from patent US20170152258A9, “Substituted Pyridopyrazines as Syk Inhibitors” (HUTCHISON MEDIPHARMA LIMITED, priority 2012, published 2017).

Experiments:
RBL-2H3 cells = experiment: IgE-induced Beta-hexosaminidase secretion in RBL-2H3 cells; format: cell-based; settings: DNP-BSA stimulation
How it was run: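 RBL-2H3 cells sensitized overnight with 0.5 ug/ml SPE-7 IgE, washed, preincubated with compound 20 min at 37° C, then stimulated with DNP-BSA (150 ng/mL stock) for 45 min. Released β-hexosaminidase measured on supernatant with 1 mM 4-nitrophenyl N-acetyl-β-D-glucosaminide, pH 4.5, 1.5 hr at 37° C; absorbance 405 nm after carbonate quench.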

Syk kinase = Syk kinase (Homo sapiens, UniProt P43405); experiment: SYK Enzymatic Assay (Z-LYTE Tyr 2 peptide); format: biochemical; settings: 8 concentrations 1 μM down to 0.0003 μM
How it was run: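 Z-LYTE format using Tyr 2 peptide. After the 1 h room-temperature kinase reaction, development reagent was added for 1 h, then stop reagent. Fluorescence was read at 445 and 520 nm. Compounds were tested at 8 concentrations, 1 μM down to 0.0003 μM (1:3 dilutions).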

[1] = Rattus norvegicus, RBL-2H3, IgE-induced Beta-hexosaminidase secretion
[2] = IgE-induced Beta-hexosaminidase secretion

Compound	IC50 (RBL-2H3 cells; [1])	IC50 (Syk kinase)	IC50 (RBL-2H3 cells; [2])	IC50 (RBL-2H3 cells; Rattus norvegicus, IgE-induced Beta-hexosaminidase secretion)
CC(C)(C(N)=O)c1ccc(-c2cc3nccnc3c(OC[C@@H]3CN(S(C)(=O)=O)CCO3)n2)cc1 [Compound 231]	87 nM	42 nM	–	–
CC1(C)OCCc2cc(-c3cc4nccnc4c(OC[C@@H]4CN(S(C)(=O)=O)CCO4)n3)ccc21 [Compound 302]	30 nM	9 nM	–	–
Cc1cc(-c2cc3nccnc3c(O[C@@H]3CCOC3)n2)ccc1N(C)C [Compound 155]	29 nM	32 nM	–	–
CN(C)c1ccc(-c2cc3nccnc3c(OC[C@@H]3CN(C(=O)c4cnn(C)c4)CCO3)n2)cc1 [Compound 87]	200 nM	60 nM	–	–
CC(=O)N1CCO[C@H](COc2nc(-c3ccc(N(C)C)c(F)c3)cc3nccnc23)C1 [Compound 139]	119 nM	95 nM	194 nM	–
Cc1cc(-c2cc3nccnc3c(OC[C@@H]3CNC(=O)C3)n2)ccc1N1CCOCC1 [Compound 224]	103 nM	48 nM	–	–
CN(C)c1ccc(-c2cc3nccnc3c(OC[C@@H]3CN(C(=O)[C@@H]4CCOC4)CCO3)n2)cc1 [Compound 72]	188 nM	109 nM	–	–
C[C@@H]1CN(c2ccc(-c3cc4nccnc4c(OC[C@@H]4CN(S(C)(=O)=O)CCO4)n3)cc2)C[C@H](C)O1 [Compound 19]	110 nM	29 nM	–	–
O=C(C(F)F)N1CCO[C@H](COc2nc(-c3ccc(C4CCOCC4)cc3)cc3nccnc23)C1 [Compound 9]	127 nM	98 nM	–	–
COc1cc(-c2cc3nccnc3c(OC[C@@H]3CN(S(C)(=O)=O)CCO3)n2)ccc1OCCN(C)C [Compound 126]	366 nM	41 nM	–	–
CS(=O)(=O)N1CCO[C@H](COc2nc(-c3ccc(C4(O)CCC4)cc3)cc3nccnc23)C1 [Compound 308]	97 nM	35 nM	–	–
CCC(=O)N1CCO[C@H](COc2nc(-c3ccc(N(C)C)c(C)c3)cc3nccnc23)C1 [Compound 202]	90 nM	26 nM	–	–
CN1CCC(c2ccc(-c3cc4nccnc4c(OC[C@@H]4CN(S(C)(=O)=O)CCO4)n3)cc2)CC1 [Compound 8]	113 nM	48 nM	–	–
CS(=O)(=O)N1CCC(c2ccc(-c3cc4nccnc4c(O[C@@H]4CCOC4)n3)cc2)CC1 [Compound 124]	45 nM	33 nM	–	–
CS(=O)(=O)N1CCO[C@H](COc2nc(-c3ccc(N4CCN(CCO)CC4)cc3)cc3nccnc23)C1 [Compound 27]	222 nM	21 nM	–	–
CC(=O)N1CCO[C@H](COc2nc(-c3ccc(C(C)(C)C)cc3)cc3nccnc23)C1 [Compound 254]	99 nM	55 nM	–	–
NC(=O)N1CCO[C@H](COc2nc(-c3ccc(C4CCOCC4)cc3)cc3nccnc23)C1 [Compound 241, (S)-2-(((7-(4-(tetrahydro-2H-pyran-4-yl)phenyl)pyrido[3,4-b]pyrazin-5-yl)oxy)methyl)morpholine-4-carboxamide]	124 nM	47 nM	–	–
CC(F)(F)c1ccc(-c2cc3nccnc3c(OC[C@@H]3CN(S(C)(=O)=O)CCO3)n2)cc1 [Compound 230]	429 nM	152 nM	–	–
CN1CCc2cc(-c3cc4nccnc4c(OC[C@@H]4CN(S(N)(=O)=O)CCO4)n3)ccc21 [Compound 215]	40 nM	19 nM	–	–
CC1(C)OCc2cc(-c3cc4nccnc4c(OC[C@@H]4CN(S(C)(=O)=O)CCO4)n3)ccc21 [Compound 299]	47 nM	14 nM	–	–
CC(=O)N1CCO[C@H](COc2nc(-c3ccc4c(c3)OCCN4C)cc3nccnc23)C1 [Compound 148]	137 nM	95 nM	–	–
CCS(=O)(=O)N1CCC(c2ccc(-c3cc4nccnc4c(OC[C@@H]4CN(C(C)=O)CCO4)n3)cc2)CC1 [Compound 23]	109 nM	62 nM	–	–
CNS(=O)(=O)N1CCO[C@H](COc2nc(-c3ccc(N4CCOCC4)cc3)cc3nccnc23)C1 [Compound 55]	144 nM	65 nM	–	–
CC(C)(O)c1ccc(-c2cc3nccnc3c(OC[C@@H]3CN(S(N)(=O)=O)CCO3)n2)cc1 [Compound 263]	400 nM	23 nM	–	–
COC1CCN(c2ccc(-c3cc4nccnc4c(OC[C@@H]4CN(C(C)=O)CCO4)n3)cc2)CC1 [Compound 48]	136 nM	87 nM	–	–
CNc1ccc(-c2cc3nccnc3c(OC[C@@H]3CN(S(C)(=O)=O)CCO3)n2)cc1 [Compound 36]	97 nM	55 nM	–	–
Cc1nccn1CCS(=O)(=O)N1CCO[C@H](COc2nc(-c3ccc(N(C)C)cc3)cc3nccnc23)C1 [Compound 101, (S)—N,N-dimethyl-4-(5-((4-(2-(2-methyl-1H-imidazol-1-yl)ethylsulfonyl)morpholin-2-yl)methoxy)pyrido[4,3-b]pyrazin-7-yl)aniline]	503 nM	52 nM	–	–
CN1CCOC(COc2nc(-c3ccc(C(C)(C)O)cc3)cc3nccnc23)C1=O (stereo not shown) [Compound 316]	113 nM	115 nM	–	–

Compound	IC50 (RBL-2H3 cells; [1])	IC50 (Syk kinase)	IC50 (RBL-2H3 cells; [2])	IC50 (RBL-2H3 cells; Rattus norvegicus, IgE-induced Beta-hexosaminidase secretion)
N#CC1(c2ccc(-c3cc4nccnc4c(OC[C@@H]4CN(C(N)=O)CCO4)n3)cc2)CCC1 [Compound 290]	374 nM	50 nM	467 nM	–
COCCN1CCC(c2ccc(-c3cc4nccnc4c(OC[C@@H]4CN(S(C)(=O)=O)CCO4)n3)cc2)CC1 [Compound 59]	117 nM	30 nM	–	–
CNc1ccc(-c2cc3nccnc3c(OC[C@@H]3CN(C(=O)[C@H]4CCCO4)CCO3)n2)cc1 [Compound 51]	159 nM	94 nM	–	–
CNS(=O)(=O)N1CCO[C@H](COc2nc(-c3ccc(N(C)C)c(C)c3)cc3nccnc23)C1 [Compound 221]	38 nM	44 nM	–	–
COc1ccc(-c2cc3nccnc3c(O[C@@H]3CCOC3)n2)cc1OC [Compound 150]	97 nM	92 nM	–	–
CC(Oc1nc(-c2ccc(N(C)C)cc2)cc2nccnc12)C1CN(S(N)(=O)=O)CCO1 (stereo not shown) [Compound 246]	44 nM	95 nM	–	–
CCS(=O)(=O)N1CCN(c2ccc(-c3cc4nccnc4c(OC[C@@H]4CN(C(C)=O)CCO4)n3)cc2)CC1 [Compound 25]	155 nM	67 nM	–	–
CNC(=O)COc1ccc(-c2cc3nccnc3c(OC[C@@H]3CN(S(C)(=O)=O)CCO3)n2)cc1 [Compound 129]	230 nM	50 nM	–	–
CN(C)c1ccc(-c2cc3nccnc3c(OC[C@@H]3CN(S(=O)(=O)CCN4CC[C@H](O)C4)CCO3)n2)cc1 [Compound 103]	325 nM	32 nM	–	–
CN(C)c1ccc(-c2cc3nccnc3c(OC[C@@H]3CN(C(=O)C(F)F)CCO3)n2)cc1F [Compound 32]	76 nM	60 nM	–	–
CS(=O)(=O)N1CCO[C@H](COc2nc(-c3ccc(C4CCOCC4)cc3)cc3nccnc23)C1 [Compound 11]	48 nM	52 nM	–	–
CN(C)c1ccc(-c2cc3nccnc3c(OC[C@@H]3CN(S(C)(=O)=O)CCO3)n2)cc1Cl [Compound 108]	52 nM	19 nM	–	–
CC(=O)N1CCO[C@H](COc2nc(-c3ccc(N(C)C)c(C)c3)cc3nccnc23)C1 [Compound 158]	32 nM	30 nM	–	–
Cc1cc(-c2cc3nccnc3c(OC[C@@H]3CN(S(N)(=O)=O)CCO3)n2)ccc1N(C)C [Compound 188]	39 nM	11 nM	–	–
CCC(=O)N1CCO[C@H](COc2nc(-c3ccc(N(C)C)cc3)cc3nccnc23)C1 [Compound 198]	86 nM	40 nM	–	–
CC(C)(C)c1ccc(-c2cc3nccnc3c(OC[C@@H]3CN(C(N)=O)CCO3)n2)cc1 [Compound 255]	97 nM	27 nM	–	–
CC(C)(O)Cc1ccc(-c2cc3nccnc3c(OC[C@@H]3CN(S(C)(=O)=O)CCO3)n2)cc1 [Compound 273]	176 nM	85 nM	–	–
CN(C)c1ccc(-c2cc3nccnc3c(OC[C@@H]3CN(S(N)(=O)=O)CCO3)n2)cc1 [Compound 178]	63 nM	19 nM	–	–
CC(=O)N1CCO[C@H](COc2nc(-c3ccc(N(C)C)c(Cl)c3)cc3nccnc23)C1 [Compound 140]	31 nM	52 nM	–	–
CN(C)c1ccc(-c2cc3nccnc3c(OC[C@@H]3CN(C(=O)[C@H]4CC[C@@H](O)CC4)CCO3)n2)cc1 [Compound 75]	131 nM	95 nM	–	–
O=C1C[C@H](COc2nc(-c3ccc(N4CCOCC4)cc3)cc3nccnc23)CN1 [Compound 223]	121 nM	57 nM	–	–
CCN1CCN(c2ccc(-c3cc4nccnc4c(OC[C@@H]4CN(C(=O)C(F)F)CCO4)n3)cc2)CC1 [Compound 17]	56 nM	32 nM	–	–
CN1CCN(c2ccc(-c3cc4nccnc4c(OC[C@@H]4CN(C(=O)C(F)F)CCO4)n3)cc2)CC1 [Compound 16]	33 nM	36 nM	–	–
CC(C)(C#N)c1ccc(-c2cc3nccnc3c(OCC3CN(S(N)(=O)=O)CCO3)n2)cc1 (stereo not shown) [Compound 250]	112 nM	28 nM	–	–
c1cnc2c(O[C@@H]3CCOC3)nc(-c3ccc(C4CCNCC4)cc3)cc2n1 [Compound 190]	645 nM	50 nM	–	–
O=C(C(F)F)N1CCO[C@H](COc2nc(-c3ccc(N4CCNCC4)cc3)cc3nccnc23)C1 [Compound 6, (S)-2,2-difluoro-1-(2-((7-(4-(piperazin-1-yl)phenyl)pyrido[4,3-b]pyrazin-5-yloxy)methyl)morpholino)ethanone]	–	34 nM	–	260 nM
COC1CCN(c2ccc(-c3cc4nccnc4c(OC[C@@H]4CN(S(C)(=O)=O)CCO4)n3)cc2)CC1 [Compound 31]	56 nM	17 nM	–	–
